According to article PMC2363406 (British Journal of Cancer, 2000):
Several values for one entry are separate records, joined by “and”; a condition that tells them apart may be missing. Equal values may be shown once. Entries after “also recorded” stand apart in the source; their conditions may differ. Where a name gives a salt, the structure may show the parent alone. Read-outs that look alike come from different tables or passages of the source.

Legend:
HNX14C = assay: In vitro growth inhibition (SRB assay), single agents and nolatrexed/paclitaxel combination (Chou and Talalay combination index); assay type: cell-based
HNX22B = assay: as above; assay type: cell-based
[1] = Clinical plasma pharmacokinetics of paclitaxel and its metabolites (HPLC, non-compartmental analysis); settings: for AUC / half-life: human
[2] = single agent, 135 mg m-2, cited from earlier work
cytochrome P450 = settings: cited from earlier work; for metabolic interactions with paclitaxel: paclitaxel pre-medication drugs, 1995, Schlichenmyer et al; for effect on the metabolism of paclitaxel: 1997
CYP2C8 = target: T1, CYP2C8 (Homo sapiens, UniProt P10632); assay: Inhibition of paclitaxel metabolism to 6-hydroxypaclitaxel in pooled human liver microsomes; assay type: in vitro ADME
T1 construct: Pooled human liver microsomes (1 mg protein per ml) were incubated with paclitaxel; tissue Keystone Skin Bank Exton, PA, USA; host or cells: pooled human liver microsomes from ten individual livers
T1 sequence (P10632 1-490): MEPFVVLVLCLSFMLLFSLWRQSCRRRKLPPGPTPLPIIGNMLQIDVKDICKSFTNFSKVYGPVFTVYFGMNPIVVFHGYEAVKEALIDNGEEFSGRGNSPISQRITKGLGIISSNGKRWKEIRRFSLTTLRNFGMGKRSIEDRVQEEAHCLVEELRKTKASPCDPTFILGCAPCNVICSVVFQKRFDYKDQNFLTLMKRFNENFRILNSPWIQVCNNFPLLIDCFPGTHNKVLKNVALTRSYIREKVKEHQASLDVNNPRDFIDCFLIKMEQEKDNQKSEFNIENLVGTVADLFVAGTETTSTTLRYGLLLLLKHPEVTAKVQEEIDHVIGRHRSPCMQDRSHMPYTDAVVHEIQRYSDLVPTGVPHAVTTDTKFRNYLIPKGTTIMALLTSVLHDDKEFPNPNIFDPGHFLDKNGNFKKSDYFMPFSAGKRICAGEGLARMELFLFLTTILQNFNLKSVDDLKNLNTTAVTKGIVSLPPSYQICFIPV

[3] = Clinical plasma pharmacokinetics of nolatrexed (HPLC, non-compartmental analysis); assay type: in vivo, human; settings: for half-life: human, plasma, iv, Nolatrexed Half-life; for half-life / Nolatrexed Half-life / Nolatrexed Clearance: nolatrexed 500 mg m-2 day-1 120-h i.v. infusion
[4] = 3-h paclitaxel exposure, single agent, mean (s.d.) n = 3
[5] = schedule 1, paclitaxel 80 mg m-2 3-h i.v., course 1, patients 3, 6, 9 in order
[6] = schedule 2, paclitaxel 80 mg m-2
[7] = schedule 2, paclitaxel 80 mg m-2 3-h i.v., course 1, patients 5, 7, 10 in order
[8] = schedule 1, patients 3, 6, 9 in order
[9] = schedule 2, patients 5, 7, 10 in order
[10] = schedule 3, patients 2, 4, 8 in order
[11] = human liver preparations and patients, ref Harris et al, 1994, Kuhn et al
[12] = in vitro studies, ref Jamis-Dow et al

CC(=O)O[C@H]1C(=O)[C@@]2(C)[C@H]([C@H](OC(=O)c3ccccc3)[C@]3(O)C[C@H](OC(=O)[C@H](O)[C@@H](NC(=O)c4ccccc4)c4ccccc4)C(C)=C1C3(C)C)[C@]1(OC(C)=O)CO[C@@H]1C[C@@H]2O [paclitaxel]
IC50 (HNX14C; [4]): 31 nM
IC50 (HNX22B; [4]): 38 nM
AUC ([1]; plasma, intravenous, 80 mg, AUCs of paclitaxel, schedules 1 and 3 (except patient 8), paclitaxel 80 mg m-2): 3 to 4.85 µM·h
AUC ([1]; plasma, intravenous, 135 mg m-2, Paclitaxel AUC, patient 8, single-agent paclitaxel 135 mg m-2 as 3-h infusion, no nolatrexed): 20.6 µM·h
half-life ([1]; plasma, intravenous, 135 mg m-2, Paclitaxel Half-life, patient 8, single-agent paclitaxel 135 mg m-2 as 3-h infusion, no nolatrexed): 6 h
AUC ([1]; plasma, iv, 80 mg, Paclitaxel AUC, schedule 1, paclitaxel 80 mg m-2 3-h i.v., course 1, patients 3, 6, 9 in order): 3.78 µM·h
AUC ([1]; plasma, iv, 80 mg, Paclitaxel AUC, schedule 2, paclitaxel 80 mg m-2 3-h i.v., course 1, patients 5, 7, 10 in order): 9.42 µM·h
half-life ([1]; plasma, iv, 80 mg, Paclitaxel Half-life, schedule 1, paclitaxel 80 mg m-2 3-h i.v., course 1, patients 3, 6, 9 in order): 7.02 h
half-life ([1]; plasma, iv, 80 mg, Paclitaxel Half-life, schedule 2, paclitaxel 80 mg m-2 3-h i.v., course 1, patients 5, 7, 10 in order): 6.88 h
half-life ([1]; plasma, iv, 80 mg, Paclitaxel Half-life, schedule 3, paclitaxel 80 mg m-2 3-h i.v., course 1, patients 2, 4, 8 in order): 6.08 h
Paclitaxel Clearance ([1]; patient 8, single-agent paclitaxel 135 mg m-2 as 3-h infusion, no nolatrexed): 127 ml min-1 m-2
clearance of paclitaxel ([1]; patients on schedules 1 and 3 (with the exception of patient 8), paclitaxel 80 mg m-2): 322–520 ml min-1 m-2 and 322-520 ml min-1 m-2
Paclitaxel Clearance [1, 5]: 376 ml min-1 m-2 and 322 ml min-1 m-2 and 411 ml min-1 m-2
Paclitaxel Half-life [1, 5]: 7.37 h and 8.45 h
time above plasma paclitaxel concentration of 0.05 M ([1]; schedule 2): 16 to 27 h
time above plasma paclitaxel concentration of 0.1 M ([1]; schedule 2): 10 to 18 h
Paclitaxel Peak conc. ([1]; schedule 2 (nolatrexed 0-120 h, paclitaxel 48-51 h), paclitaxel 80 mg m-2 3-h i.v., plasma, course 1, patients 5, 7, 10 in order): 1.66-1.93 M
areas under the curve of paclitaxel [1, 6]: 392 to 565 µM/min
peak plasma concentrations of paclitaxel [1, 6]: 1.66 to 1.93 µM
Paclitaxel Clearance [1, 7]: 165–238 ml min-1 m-2 and 165 ml min-1 m-2 and 238 ml min-1 m-2 and 171 ml min-1 m-2 and 165-238 ml min-1 m-2
Paclitaxel Half-life [1, 7]: 6.35 h and 6.93 h
Paclitaxel AUC ([1]; schedule 2, paclitaxel 80 mg m-2 3-h i.v., plasma, course 1, patients 5, 7, 10 in order): 392 to 565 M/min
Paclitaxel Half-life ([1]; schedule 3, paclitaxel 80 mg m-2 3-h i.v., course 1, patients 2, 4, 8 in order): 8.42 h and 6.35 h
time above plasma paclitaxel concentration of 0.05 M ([1]; schedules 1 and 3): 8 to 18 h
time above plasma paclitaxel concentration of 0.1 M ([1]; schedules 1 and 3): 5 to 8 h
peak plasma concentrations of paclitaxel ([1]; schedules 1 and 3 (except patient 8), paclitaxel 80 mg m-2): 860000 to 1.32e+06 µM
Paclitaxel Clearance ([2]; ref Gianni, 1995): 247 ml min-1 m-2
Paclitaxel Clearance ([2]; ref Keung, 1993): 295 ml min-1 m-2

CN/C(=N/CCSCc1nc[nH]c1C)NC#N [cimetidine]
metabolic interactions with paclitaxel (cytochrome P450; ref Jamis-Dow et al): no metabolic interactions

Cc1ccc2nc(N)[nH]c(=O)c2c1Sc1ccncc1 [nolatrexed, 3,4-dihydro-2-amino-6-methyl-4-oxo-5-(4-pyridylthio)-quinazolone dihydrochloride]
IC50 (HNX14C; 120 h): 1120 nM
IC50 (HNX22B; 120 h): 660 nM
inhibition of paclitaxel metabolism (CYP2C8; human liver microsomes, statement in words): being an inhibitor of the major routes of metabolism of paclitaxel
Ki (CYP2C8; read-out: Ki, inhibition of metabolism of paclitaxel to its 6-hydroxy-metabolite): 640 nM
half-life [3, 8]: 1.1 h
half-life [3, 9]: 1.97 h
half-life [3, 10]: 1.62 h
Nolatrexed Half-life [3, 8]: 1.88 h and 2.13 h
Nolatrexed Clearance [3, 9]: 73 ml min-1 m-2 and 108 ml min-1 m-2 and 91 ml min-1 m-2
Nolatrexed Half-life [3, 9]: 1.58 h and 2.57 h
Nolatrexed Clearance [3, 10]: 99 ml min-1 m-2 and 62 ml min-1 m-2 and 79 ml min-1 m-2
Nolatrexed Half-life [3, 10]: 2.2 h and 1.9 h
effect of schedule on the pharmacokinetics of nolatrexed ([3]; three schedules with paclitaxel): no effect of schedule; also recorded: unaffected by schedule

CCC1(c2ccccc2)C(=O)NC(=O)NC1=O [phenobarbitone]
effect on the metabolism of paclitaxel (cytochrome P450; [11]): increase the metabolism of paclitaxel

CC(=O)N1CCN(c2ccc(OCC3COC(Cn4ccnc4)(c4ccc(Cl)cc4Cl)O3)cc2)CC1 (stereo not drawn) [ketoconazole]
effect on the metabolism of paclitaxel (cytochrome P450; [12]): inhibit the metabolism of paclitaxel

C[C@@H]1C[C@H]2[C@@H]3CCC4=CC(=O)C=C[C@]4(C)[C@@]3(F)[C@@H](O)C[C@]2(C)[C@@]1(O)C(=O)CO [dexamethasone]
metabolic interactions with paclitaxel (cytochrome P450; ref Jamis-Dow et al): no metabolic interactions

O=C1NC(=O)C(c2ccccc2)(c2ccccc2)N1 [phenytoin]
effect on the metabolism of paclitaxel (cytochrome P450; [11]): increase the metabolism of paclitaxel

CN(C)CCC(c1ccc(Cl)cc1)c1ccccn1 (stereo not drawn) [chlorpheniramine]
metabolic interactions with paclitaxel (cytochrome P450; ref Jamis-Dow et al): no metabolic interactions

OC(Cn1cncn1)(Cn1cncn1)c1ccc(F)cc1F [fluconazole]
effect on the metabolism of paclitaxel (cytochrome P450; [12]): inhibit the metabolism of paclitaxel
